From patent US4596710A, “Gallium chloride as a new anti-cancerous drug” (priority 1981, dated 1986)

Tests used:
[1] = Clinical and biological tolerance in patients; settings: Adriamycine 50 mg + 5-fluoro-uracil 900 mg + Endoxan 900 mg; before gallium chloride; alcoholic patient
Protocol: Mrs. […] Post-operative chemotherapy (5-fluoro-uracil and endoxan) was then effected up to April 1979. At that time, […] underwent a second operation with excision of the remaining cervix and omentectomy. […] Cobalt therapy was then carried out from Nov. 5th, 1979 to Feb. 5th, 1980 on the abdomen, pelvis and diaphragm cupolas, then further chemotherapy (hexamethylmelamine) from August to October 1980. […] Treatment by gallium chloride started on Nov. 1 st, 1980 at the posology of 300 mg per day per os in three doses of 100 mg. […] An echotomograph on Dec. […] A third echotomograph was made on Jan. […] On Mar.
The treatment by gallium chloride was started on May 15th, 1981, at the posology of 600 mg/24 hours up to Sept. 20th, 1981, in association with a heparinotherapy at mini-doses. This heparinotherapy had been prescribed to prevent a phlebitis or pulmonary embolism following the surgical operation of April 1981 and had not been interrupted in order not to provoke the phenomenon of tumoral flare-up. [Calciparin (heparin calcium salt) 0.2 ml, 3 times per day by sub-cutaneous route]. […] On Sept. […] This was the case. . . […] 29th, 1981. […] Up to Nov. […] It was from Sept.
HOT... […] , was operated on May 14th, 1981 for an adenocarcinoma of the colon. […] An almost total colectomy was carried out, leaving 20 cm of sigmoid and a resection of the small bowel over a length of 15 cm. […] On Oct. […] An exploratory laparotomy was made on Nov. […] 7th, 1982.
Gallium chloride therapy was started on Sept.

[2] = cited from earlier work
[3] = Anghileri 1973; cited from earlier work

O=c1[nH]cc(F)c(=O)[nH]1 [5-fluoro-uracil, reference compound]
pancytopenia after combination chemotherapy, 2nd patient [1]: a pancytopenia which would persist for several months

COc1cccc2c1C(=O)c1c(O)c3c(c(O)c1C2=O)C[C@@](O)(C(=O)CO)C[C@@H]3O[C@H]1C[C@H](N)[C@H](O)[C@H](C)O1 [Adriamycine, reference compound]
pancytopenia after combination chemotherapy, 2nd patient [1]: a pancytopenia which would persist for several months

O=P1(N(CCCl)CCCl)NCCCO1 (stereo not drawn) [Endoxan, reference compound]
pancytopenia after combination chemotherapy, 2nd patient [1]: a pancytopenia which would persist for several months

O=[N+]([O-])[O-].O=[N+]([O-])[O-].O=[N+]([O-])[O-].[Ga+3] [gallium nitrate]
renal toxicity ([2]; human therapeutics): excessive renal toxicity
results of tests in human therapeutics ([2]; in vivo): minor results

gallium
displacement of magnesium from the cell [3]: capable of displacing magnesium from the cell
